In patent US20230174507A1, “IMIDAZOLE 3-OXIDE DERIVATIVE BASED ACSS2 INHIBITORS AND METHODS OF USE THEREOF” (METABOMED LTD., priority 2020, published 2023):

Legend:
[1] = biological target: T1, ACSS2 in MDA-MB-468 cells (Homo sapiens, UniProt Q9NR19); assay: Cellular fatty-acid IC50: 13C-acetate incorporation into fatty acids (palmitate), LC-MS; format: cell-based; details: hypoxic conditions (1% O2), 75% charcoal stripped serum, 5 hours, 13C-acetate into palmitate, read-out: Cellular Fatty-acid IC50 High Serum MDA468
T1 construct: endogenous in cells; host or cells: MDA-MB-468 cells, hypoxia (1% O2)
How it was run: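 MDA-MB-468 cells under hypoxia (1% O2) treated 5 h with compound (0.000512-1000 nM) in medium with 75% charcoal-stripped serum and 0.5 mM 13C-acetate. 13C-palmitate quantified by LC-MS (negative ion, RSIM). IC50 from inhibition versus no-compound control, background-subtracted, constrained 0–100% nonlinear fit.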

human ACSS2 protein = biological target: T2, human ACSS2 protein (Homo sapiens, UniProt Q9NR19); assay: ACSS2 cell-free activity assay (pyrophosphatase-coupled, Biomol green); details: 10 nM human ACSS2, 90 minutes at 37 C, absorbance at 620 nm; read-out: ACSS2 Biochemical IC50
T2 construct: purchased OriGene Technologies, Inc
How it was run: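 10 nM human ACSS2 incubated 90 min at 37 C with compound, 300 μM ATP, 10 μM CoA, 5 mM NaAc in pH 7.5 Hepes buffer with 0.5 U/ml pyrophosphatase. Released phosphate detected with Biomol Green at 620 nm; IC50 by non-linear regression constrained to 0% and 100%.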

human ACSS1 protein = biological target: T3, human ACSS1 protein (Homo sapiens, UniProt Q9NUB1); assay: ACSS1 cell-free activity assay (pyrophosphatase-coupled, Biomol green); format: biochemical; details: 5 nM human ACSS1, 30 minutes at room temperature, absorbance at 620 nm
T3 construct: purchased MyBioSource
T3 sequence (Q9NUB1 38-689): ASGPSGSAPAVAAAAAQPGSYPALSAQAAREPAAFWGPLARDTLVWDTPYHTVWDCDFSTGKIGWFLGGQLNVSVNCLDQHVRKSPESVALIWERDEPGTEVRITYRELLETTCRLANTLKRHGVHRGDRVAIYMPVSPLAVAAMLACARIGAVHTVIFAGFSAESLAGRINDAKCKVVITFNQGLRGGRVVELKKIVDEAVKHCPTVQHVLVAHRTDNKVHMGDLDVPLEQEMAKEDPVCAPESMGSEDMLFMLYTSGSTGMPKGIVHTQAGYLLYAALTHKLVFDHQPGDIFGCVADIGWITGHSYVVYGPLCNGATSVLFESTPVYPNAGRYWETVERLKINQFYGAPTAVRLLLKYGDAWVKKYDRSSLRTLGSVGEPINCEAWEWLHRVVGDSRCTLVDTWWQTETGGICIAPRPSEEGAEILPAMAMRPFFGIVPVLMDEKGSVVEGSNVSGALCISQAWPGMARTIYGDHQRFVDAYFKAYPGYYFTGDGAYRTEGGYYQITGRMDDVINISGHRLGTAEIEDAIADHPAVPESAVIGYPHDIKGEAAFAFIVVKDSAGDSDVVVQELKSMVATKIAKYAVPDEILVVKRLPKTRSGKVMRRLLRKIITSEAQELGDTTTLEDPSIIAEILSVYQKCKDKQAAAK
How it was run: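 5 nM human ACSS1 incubated 30 min at RT with compound in pH 7.5 Hepes buffer with 15 μM CoA, 5 mM acetate, 300 μM ATP, 2 mM MgCl2 and pyrophosphatase. Released phosphate detected with Biomol Green (30 min), absorbance 620 nm. IC50 from constrained non-linear regression.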

T2 sequence (Q9NR19 whole entry): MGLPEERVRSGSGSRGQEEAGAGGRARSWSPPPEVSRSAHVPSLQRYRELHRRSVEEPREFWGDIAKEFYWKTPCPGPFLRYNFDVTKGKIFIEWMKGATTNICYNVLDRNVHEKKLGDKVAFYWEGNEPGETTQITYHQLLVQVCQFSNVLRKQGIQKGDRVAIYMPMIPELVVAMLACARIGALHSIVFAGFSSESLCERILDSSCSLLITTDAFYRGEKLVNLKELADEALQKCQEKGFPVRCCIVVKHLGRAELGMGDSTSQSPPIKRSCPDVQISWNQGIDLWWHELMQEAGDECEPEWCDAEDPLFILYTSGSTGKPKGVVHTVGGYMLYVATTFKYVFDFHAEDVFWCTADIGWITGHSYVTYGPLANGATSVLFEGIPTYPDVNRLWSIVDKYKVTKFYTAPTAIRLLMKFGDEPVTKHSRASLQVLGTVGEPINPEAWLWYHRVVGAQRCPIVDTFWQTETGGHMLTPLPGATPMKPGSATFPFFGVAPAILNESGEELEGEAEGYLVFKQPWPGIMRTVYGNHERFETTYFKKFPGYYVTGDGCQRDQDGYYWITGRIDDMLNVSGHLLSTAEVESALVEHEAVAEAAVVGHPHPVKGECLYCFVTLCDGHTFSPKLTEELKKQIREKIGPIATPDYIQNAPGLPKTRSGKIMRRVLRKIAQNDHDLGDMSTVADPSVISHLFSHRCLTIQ
T1 sequence (Q9NR19 whole entry): as above

SMILES	IC50 [1] [µM]	IC50 (human ACSS2 protein) [µM]	ACSS1 Biochemical IC50 (nM) (human ACSS1 protein)
Cc1cccc(C)c1-c1cc(-c2[nH]c(C)c(C(=O)Nc3cccc(C(F)(F)C4CC4)c3)[n+]2[O-])ccc1Cl [Compound 197, 2-(6-chloro-2′,6′-dimethyl-[1,1′-biphenyl]-3-yl)-4-((3-(cyclopropyldifluoromethyl)phenyl)carbamoyl)-5-methyl-1H-imidazole 3-oxide]	> 0.05	< 0.001	Inactive
COc1cc(Cl)c(-c2[nH]c(C)c(C(=O)Nc3cccc(C(F)(F)C4CC4)c3)[n+]2[O-])cc1-c1c(C)cccc1C [Compound 198, 2-(4-chloro-6-methoxy-2′,6′-dimethyl-[1,1′-biphenyl]-3-yl)-4-((3-(cyclopropyldifluoromethyl)phenyl)carbamoyl)-5-methyl-1H-imidazole 3-oxide]	> 0.05	< 0.001	Inactive
COc1ccc(-c2[nH]c(C)c(C(=O)Nc3cccc(-c4cn(C)nn4)c3)[n+]2[O-])cc1-c1c(C)cccc1C [Compound 199, 2-(6-methoxy-2′,6′-dimethyl-[1,1′-biphenyl]-3-yl)-5-methyl-4-((3-(1-methyl-1H-1,2,3-triazol-4-yl)phenyl)carbamoyl)-1H-imidazole 3-oxide]	0.02 to 0.05	< 0.001	Inactive
COc1ccc(-c2[nH]c(C)c(C(=O)Nc3cccc(-c4cnn(C)n4)c3)[n+]2[O-])cc1-c1c(C)cccc1C [Compound 201, 2-(6-methoxy-2′,6′-dimethyl-[1,1′-biphenyl]-3-yl)-5-methyl-4-((3-(2-methyl-2H-1,2,3-triazol-4-yl)phenyl)carbamoyl)-1H-imidazole 3-oxide]	< 0.02	< 0.001	Inactive
COc1cc(F)c(-c2[nH]c(C)c(C(=O)Nc3cccc(C(F)(F)C4CC4)c3)[n+]2[O-])nc1-c1c(C)cccc1C [Compound 202, 4-((3-(cyclopropyldifluoromethyl)phenyl)carbamoyl)-2-(6-(2,6-dimethylphenyl)-3-fluoro-5-methoxypyridin-2-yl)-5-methyl-1H-imidazole 3-oxide]	> 0.05	< 0.001	Inactive
Cc1cccc(C)c1-c1cc(-c2[nH]c(C)c(C(=O)Nc3cccc(C(F)(F)F)c3)[n+]2[O-])ccc1F [Compound 203, 2-(6-fluoro-2′,6′-dimethyl-[1,1′-biphenyl]-3-yl)-5-methyl-4-((3-(trifluoromethyl)phenyl)carbamoyl)-1H-imidazole 3-oxide]	> 0.05	< 0.001	Inactive
COc1cc(F)c(-c2[nH]c(C)c(C(=O)Nc3cccc(C(F)(F)F)c3)[n+]2[O-])cc1-c1c(F)cccc1F [Compound 207, 5-methyl-2-(2′,4,6′-trifluoro-6-methoxy-[1,1′-biphenyl]-3-yl)-4-((3-(trifluoromethyl)phenyl)carbamoyl)-1H-imidazole 3-oxide]	> 0.05	< 0.001	Inactive
